Laboratory results as given in ChEMBL document CHEMBL1201862, “PubChem BioAssay data set” (2004).
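Grown in 96-well plates, cells were treated for 48 hours with each compound at five concentrations. Insufficient inhibition: endpoint recorded as highest concentration tested. Abbreviation: GI50, concentration required for 50% inhibition of growth.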 Active and inactive are the calls of the source. Cut-off read from the data, not from the text of the source: active = GI50 up to about 1.1 µM and inactive = higher.

What was measured:
Test in all cases: NCI tumour cell line growth inhibition, 48 h
SF-295 = system: SF-295
NCI-H460 = system: NCI-H460
MOLT-4 = system: MOLT-4
NCI-H226 = system: NCI-H226
UACC-257 = system: UACC-257
MCF7 = system: MCF7
SF-268 = system: SF-268
NCI-H522 = system: NCI-H522
786-0 = system: 786-0
SR = system: SR
Malme-3M = system: Malme-3M
HOP-62 = system: HOP-62
DU-145 = system: DU-145
SK-MEL-28 = system: SK-MEL-28
MDA-MB-231 = system: MDA-MB-231
T47D = system: T47D
SF-539 = system: SF-539
SK-OV-3 = system: SK-OV-3

Measured: GI50

Nc1ncc(Br)c(NCC2(CO)CCC2)n1
inactive: SF-295 97.1 µM | NCI-H460 71.9 µM | MOLT-4 80 µM | NCI-H226 66.8 µM | UACC-257 > 100 µM | MCF7 > 100 µM | SF-268 > 100 µM | NCI-H522 92 µM | 786-0 > 100 µM | SR > 100 µM | Malme-3M > 100 µM | HOP-62 > 100 µM | DU-145 81.3 µM | SK-MEL-28 > 100 µM | MDA-MB-231 > 100 µM | T47D 1.69 µM | SF-539 > 100 µM

CCOC(=O)/C=C(/C=C\COC1CCCCO1)c1ccccc1 (stereo not drawn)
inactive: SK-OV-3 33.6 µM | SF-295 24.8 µM | NCI-H460 48.1 µM | MOLT-4 20.4 µM | NCI-H226 70.6 µM | UACC-257 56.1 µM | MCF7 29 µM | SF-268 32.1 µM | NCI-H522 21.7 µM | 786-0 24.7 µM | SR 18.8 µM | Malme-3M 84.7 µM | HOP-62 > 100 µM | DU-145 40 µM | SK-MEL-28 30 µM | MDA-MB-231 42.4 µM | T47D 20.8 µM

CC(=O)O[C@H]1CC[C@H]2[C@@H]3CCc4cc(O)c(I)cc4[C@H]3CC[C@]12C
inactive: SK-OV-3 15.7 µM | SF-295 15.3 µM | NCI-H460 12.9 µM | MOLT-4 4.73 µM | NCI-H226 14.9 µM | UACC-257 16.4 µM | MCF7 17 µM | SF-268 13.8 µM | NCI-H522 11.8 µM | 786-0 14.1 µM | SR 10.6 µM | Malme-3M 16.9 µM | DU-145 14.8 µM | SK-MEL-28 15.3 µM | MDA-MB-231 3.64 µM | T47D 14.7 µM | SF-539 15.2 µM

NC(=S)Nc1ccc2c(c1)oc1ccccc12
inactive: SK-OV-3 > 100 µM | SF-295 > 100 µM | NCI-H460 > 100 µM | MOLT-4 7.1 µM | NCI-H226 39 µM | UACC-257 > 100 µM | MCF7 8.73 µM | SF-268 > 100 µM | NCI-H522 7.57 µM | 786-0 > 100 µM | SR > 100 µM | Malme-3M 8.11 µM | HOP-62 > 100 µM | DU-145 > 100 µM | SK-MEL-28 > 100 µM | MDA-MB-231 > 100 µM | T47D > 31.5 µM
